One data set addresses p110δ/p85 (Homo sapiens, UniProt O00329). In words: Inhibition of isolated enzyme (lipid kinase assay, [γ33P]ATP, TLC). Format: biochemical. To be noted: recombinant enzyme, 100 μM ATP, 1 hr room temperature, average of two experiments. The protocol: (§1) Compounds were evaluated for their ability to inhibit Class I PI 3-kinase enzymes p110δ/p85, p110α/p85, and p110β/p85. Reaction mixtures comprising 0.1 μg of a recombinant enzyme, 10 μg of L-α-phosphatidylinositol, and 2× Lipid Kinase Buffer (40 mM Tris-HCl, pH 7.4, 200 mM NaCl, 1 mM EDTA), which contains either DMSO only as a control or the test compound in DMSO (the final DMSO concentration is 1%), were activated by the addition of an ATP mix (5 mM MgCl2, 100 μM ATP, and 0.1 μL [γ^33P]ATP). Reactions were incubated at room temperature for 1 hr, and then stopped by the addition of 1M HCl. The lipids were then extracted using a two step procedure. Firstly, 200 μL of chloroform/methanol (1:1) was added, the biphasic reactions mixed and centrifuged briefly, and the inorganic phase was removed and discarded. Following this, 80 μL of methanol:HCl (1:1) was added and the same procedure followed. The organic phase (70 μL) was then transferred to a clean 1.6 mL tube and the reactions were dried using a Speedvac, with no heating, for […]. The reactions were spotted onto TLC plates (Merck Ltd) and developed for 1 hr in propanol-1:2 M acetic acid (13:7). The TLC plates were then dried at room temperature and quantified using a phosphorimager (StormImager, Amersham). Nine compound concentrations were used for each test compound to determine its IC50 value. Each experiment was performed twice and the average IC50 value is used herein.

Another data set has as its target p110α/p85 (Homo sapiens, UniProt P42336). The description is as above. It counts as biochemical. To be noted: recombinant enzyme, 100 μM ATP, 1 hr room temperature, average of two experiments. The method, then:
as §1

The structures appear in SMILES notation. Where a name gives a salt, the structure may show the parent alone.

Sequence of p110α/p85 (P42336 whole entry): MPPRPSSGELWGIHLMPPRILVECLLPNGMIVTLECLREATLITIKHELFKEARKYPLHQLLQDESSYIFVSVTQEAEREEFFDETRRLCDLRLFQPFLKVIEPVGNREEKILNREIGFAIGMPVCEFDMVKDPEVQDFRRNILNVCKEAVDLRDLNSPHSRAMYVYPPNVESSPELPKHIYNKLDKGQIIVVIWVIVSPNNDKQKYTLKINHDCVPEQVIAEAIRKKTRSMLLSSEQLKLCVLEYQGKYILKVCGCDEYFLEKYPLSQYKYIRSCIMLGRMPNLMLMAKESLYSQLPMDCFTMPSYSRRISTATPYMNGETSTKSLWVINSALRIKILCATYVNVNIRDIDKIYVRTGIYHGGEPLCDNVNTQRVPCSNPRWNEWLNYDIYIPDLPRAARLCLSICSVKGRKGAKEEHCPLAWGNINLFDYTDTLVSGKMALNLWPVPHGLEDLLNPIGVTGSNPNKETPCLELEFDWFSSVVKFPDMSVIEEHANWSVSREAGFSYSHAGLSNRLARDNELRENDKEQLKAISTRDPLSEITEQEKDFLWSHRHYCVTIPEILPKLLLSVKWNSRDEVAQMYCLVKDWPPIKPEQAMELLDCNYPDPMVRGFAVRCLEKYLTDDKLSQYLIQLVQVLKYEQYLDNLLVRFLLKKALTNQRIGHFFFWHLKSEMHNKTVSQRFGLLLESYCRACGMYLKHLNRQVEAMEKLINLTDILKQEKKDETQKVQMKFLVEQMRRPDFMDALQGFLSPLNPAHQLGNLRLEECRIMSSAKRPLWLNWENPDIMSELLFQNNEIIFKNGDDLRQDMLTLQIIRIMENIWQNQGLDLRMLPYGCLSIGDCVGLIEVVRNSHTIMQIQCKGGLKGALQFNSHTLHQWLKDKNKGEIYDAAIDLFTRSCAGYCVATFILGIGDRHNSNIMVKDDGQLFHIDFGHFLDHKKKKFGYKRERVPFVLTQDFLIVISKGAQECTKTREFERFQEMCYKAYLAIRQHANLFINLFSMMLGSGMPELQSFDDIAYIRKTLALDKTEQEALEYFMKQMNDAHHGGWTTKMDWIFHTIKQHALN
Sequence of p110α/p85 (P27986 whole entry partner): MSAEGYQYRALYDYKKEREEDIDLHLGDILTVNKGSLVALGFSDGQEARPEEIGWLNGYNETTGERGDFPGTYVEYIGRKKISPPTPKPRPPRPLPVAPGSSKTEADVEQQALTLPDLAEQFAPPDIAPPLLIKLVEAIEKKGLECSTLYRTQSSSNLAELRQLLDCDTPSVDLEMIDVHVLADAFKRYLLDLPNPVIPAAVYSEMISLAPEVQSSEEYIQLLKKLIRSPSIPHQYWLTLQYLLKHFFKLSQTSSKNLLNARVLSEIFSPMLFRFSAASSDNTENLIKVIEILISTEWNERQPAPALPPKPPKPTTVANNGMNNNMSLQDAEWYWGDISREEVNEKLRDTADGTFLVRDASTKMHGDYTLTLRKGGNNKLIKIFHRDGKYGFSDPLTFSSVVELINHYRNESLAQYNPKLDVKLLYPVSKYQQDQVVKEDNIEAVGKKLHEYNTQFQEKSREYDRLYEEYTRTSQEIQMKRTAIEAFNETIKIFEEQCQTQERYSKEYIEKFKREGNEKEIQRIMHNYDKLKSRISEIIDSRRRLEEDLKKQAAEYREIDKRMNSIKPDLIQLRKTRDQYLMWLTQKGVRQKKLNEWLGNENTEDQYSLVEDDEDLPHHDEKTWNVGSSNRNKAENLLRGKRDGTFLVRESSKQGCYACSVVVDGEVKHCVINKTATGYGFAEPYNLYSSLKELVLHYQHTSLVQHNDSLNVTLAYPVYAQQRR
Sequence of p110δ/p85 (O00329 whole entry, species assumed): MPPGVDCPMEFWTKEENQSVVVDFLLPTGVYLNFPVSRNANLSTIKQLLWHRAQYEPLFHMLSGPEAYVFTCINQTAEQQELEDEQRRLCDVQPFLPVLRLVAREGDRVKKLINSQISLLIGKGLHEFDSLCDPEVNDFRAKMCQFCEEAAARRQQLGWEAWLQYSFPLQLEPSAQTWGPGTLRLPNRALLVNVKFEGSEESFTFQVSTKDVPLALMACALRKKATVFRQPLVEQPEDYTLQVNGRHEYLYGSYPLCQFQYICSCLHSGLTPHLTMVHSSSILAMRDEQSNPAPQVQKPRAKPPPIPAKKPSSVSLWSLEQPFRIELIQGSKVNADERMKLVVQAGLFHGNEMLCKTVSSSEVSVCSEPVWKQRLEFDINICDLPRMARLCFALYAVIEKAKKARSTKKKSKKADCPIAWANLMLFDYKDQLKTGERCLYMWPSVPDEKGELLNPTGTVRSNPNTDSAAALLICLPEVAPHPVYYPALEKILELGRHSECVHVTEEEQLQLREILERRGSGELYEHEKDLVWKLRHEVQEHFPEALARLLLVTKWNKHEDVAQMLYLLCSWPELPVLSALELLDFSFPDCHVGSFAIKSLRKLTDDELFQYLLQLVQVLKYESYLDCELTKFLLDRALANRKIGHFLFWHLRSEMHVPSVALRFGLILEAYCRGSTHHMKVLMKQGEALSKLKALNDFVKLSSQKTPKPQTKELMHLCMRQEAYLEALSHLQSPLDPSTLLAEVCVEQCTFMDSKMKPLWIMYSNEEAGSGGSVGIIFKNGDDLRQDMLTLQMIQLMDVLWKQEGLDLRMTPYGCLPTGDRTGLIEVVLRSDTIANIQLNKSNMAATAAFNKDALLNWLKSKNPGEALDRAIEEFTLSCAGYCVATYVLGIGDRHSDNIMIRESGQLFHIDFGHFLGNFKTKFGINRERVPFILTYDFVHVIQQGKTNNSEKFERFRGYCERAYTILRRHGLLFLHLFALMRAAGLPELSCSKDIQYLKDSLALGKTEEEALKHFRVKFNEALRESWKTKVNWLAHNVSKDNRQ
Sequence of p110δ/p85 (P27986 whole entry partner, species assumed): as the sequence (P27986 whole entry partner) above

What is called melting point is the temperature of the solid-liquid transition. Turning to `COc1cccc2c1nc(C(F)F)n2-c1nc(Nc2cccnc2)nc(N2CCOCC2)n1` (as salt: methanesulfonate) [Example 2, 4-[2-(difluoromethyl)-4-methoxy-1H-benzimidazol-1-yl]-6-(4-morpholinyl)-N-(3-pyridinyl)-1,3,5-triazin-2-amine], the melting point lay in the range of 279 to 282 °C. The compound `FC(F)c1nc2ccccc2n1-c1nc(Nc2cncnc2)nc(N2CCOCC2)n1` (as salt: methanesulfonate) [Example 35, 4-[2-(difluoromethyl)-1H-benzimidazol-1-yl]-6-(4-morpholinyl)-N-(5-pyrimidinyl)-1,3,5-triazin-2-amine] came in with a melting point of 163 to 166 °C.

The compound `COc1cc(N)cc2c1nc(C(F)F)n2-c1nc(N2CCOCC2)nc(-n2cccn2)n1` (as salt: methanesulfonate) [Example 64, 2-(Difluoromethyl)-4-methoxy-1-[4-(4-morpholinyl)-6-(1H-pyrazol-1-yl)-1,3,5-triazin-2-yl]-1H-benzimidazol-6-ylamine] had a melting point of more than 300 °C. Compound `COc1cc(N)cc2c1nc(C(F)F)n2-c1nc(-c2ccn(C)n2)nc(N2CCOCC2)n1` (as salt: methanesulfonate) [Example 65, 2-(Difluoromethyl)-4-methoxy-1-[4-(1-methyl-1H-pyrazol-3-yl)-6-(4-morpholinyl)-1,3,5-triazin-2-yl]-1H-benzimidazol-6-ylamine] came in with a melting point of more than 300 °C. For `COc1cc(N)cc2c1nc(C(F)F)n2-c1nc(-c2cn[nH]c2)nc(N2CCOCC2)n1` (as salt: methanesulfonate) [Example 66, 2-(Difluoromethyl)-4-methoxy-1-[4-(4-morpholinyl)-6-(1H-pyrazol-4-yl)-1,3,5-triazin-2-yl]-1H-benzimidazol-6-ylamine], the melting point was more than 300 °C. As to `COc1cc(N)cc2c1nc(C(F)F)n2-c1nc(-c2cccnc2)cc(N2CCOCC2)n1` (as salt: methanesulfonate) [Example 68, 2-(Difluoromethyl)-4-methoxy-1-[4-(4-morpholinyl)-6-(3-pyridinyl)-2-pyrimidinyl]-1H-benzimidazol-6-ylamine], the melting point is 246 °C (dec.). What is called IC50 is the concentration needed to halve the response being measured. For the compound `COc1cccc2c1nc(C(F)F)n2-c1nc(Nc2cnc(Cl)nc2)nc(N2CCOCC2)n1` [Example 41, N-(2-chloro-5-pyrimidinyl)-4-[2-(difluoromethyl)-4-methoxy-1H-benzimidazol-1-yl]-6-(4-morpholinyl)-1,3,5-triazin-2-amine], the melting point was 295 °C (dec.). The IC50 on p110δ/p85 is less than 100 nM. In addition, the IC50 on p110α/p85 was less than 100 nM. `COc1cccc2c1nc(C(F)F)n2-c1nc(Nc2cnc(N(C)CCN(C)C)nc2)nc(N2CCOCC2)n1` [Example 42, N^5-[4-[2-(difluoromethyl)-4-methoxy-1H-benzimidazol-1-yl]-6-(4-morpholinyl)-1,3,5-triazin-2-yl]-N^2-[2-(dimethylamino)ethyl]-N^2-methyl-2,5-pyrimidinediamine] came in with a melting point of 96 to 98 °C. On p110δ/p85, the IC50 is less than 100 nM. In addition, at p110α/p85, the IC50 was less than 100 nM.

`COc1cccc2c1nc(C(F)F)n2-c1nc(Nc2cnc(N(C)CCCN(C)C)nc2)nc(N2CCOCC2)n1` [Example 43, N^5-[4-[2-(difluoromethyl)-4-methoxy-1H-benzimidazol-1-yl]-6-(4-morpholinyl)-1,3,5-triazin-2-yl]-N^2-[3-(dimethylamino)propyl]-N^2-methyl-2,5-pyrimidinediamine] had a melting point of 97 to 99 °C. Besides, at p110δ/p85, the IC50 is less than 100 nM. On p110α/p85, the IC50 was less than 100 nM. The compound `CN(c1cncnc1)c1nc(N2CCOCC2)nc(-n2c(C(F)F)nc3ccccc32)n1` [Example 44, 4-[2-(difluoromethyl)-1H-benzimidazol-1-yl]-N-methyl-6-(4-morpholinyl)-N-(5-pyrimidinyl)-1,3,5-triazin-2-amine] displayed a melting point of 202 to 205 °C. Moreover, the 50% inhibitory concentration (IC50) at p110δ/p85 was less than 100 nM. Further, the IC50 on p110α/p85 was less than 100 nM. In turn, `COc1cccc2c1nc(C(F)F)n2-c1nc(N2CCOCC2)nc(N(C)c2cncnc2)n1` [Example 45, 4-[2-(difluoromethyl)-4-methoxy-1H-benzimidazol-1-yl]-N-methyl-6-(4-morpholinyl)-N-(5-pyrimidinyl)-1,3,5-triazin-2-amine] gave a melting point of 214 to 217 °C. Moreover, the IC50 at p110δ/p85 was less than 100 nM. Further, the IC50 on p110α/p85 was less than 100 nM. In turn, `COc1cccc2c1nc(C(F)F)n2-c1nc(-c2cccnc2)nc(N2CCOCC2)n1` [Example 48, 2-(difluoromethyl)-4-methoxy-1-[4-(4-morpholinyl)-6-(3-pyridinyl)-1,3,5-triazin-2-yl]-1H-benzimidazole] had a melting point of 208 to 210 °C. Besides, on p110δ/p85, the IC50 is less than 100 nM. Also, the IC50 on p110α/p85 was less than 100 nM.

Regarding `COc1cccc2c1nc(C(F)F)n2-c1nc(-c2ccc(N)nc2)nc(N2CCOCC2)n1` [Example 49, 5-[4-[2-(difluoromethyl)-4-methoxy-1H-benzimidazol-1-yl]-6-(4-morpholinyl)-1,3,5-triazin-2-yl]-2-pyridinamine], the melting point was 259 to 261 °C. Moreover, the IC50 on p110δ/p85 is less than 100 nM. Moreover, the IC50 on p110α/p85 is less than 100 nM.

For `COc1cccc2c1nc(C(F)F)n2-c1nc(-c2cn[nH]c2)nc(N2CCOCC2)n1` [Example 50, 2-(Difluoromethyl)-4-methoxy-1-[4-(4-morpholinyl)-6-(1H-pyrazol-4-yl)-1,3,5-triazin-2-yl]-1H-benzimidazole], the melting point lay within 289 to 291 °C.

`FC(F)c1nc2ccccc2n1-c1nc(-c2cccnc2)cc(N2CCOCC2)n1` [Example 51, 2-(difluoromethyl)-1-[4-(4-morpholinyl)-6-(3-pyridinyl)-2-pyrimidinyl]-1H-benzimidazole] displayed a melting point of 172 to 179 °C. Further, on p110δ/p85, the IC50 is 100 to 1000 nM. Moreover, the IC50 at p110α/p85 was in the range of 100 to 1000 nM.

`COc1ccc(-c2cc(N3CCOCC3)nc(-n3c(C(F)F)nc4ccccc43)n2)cn1` [Example 53]: the melting point is 224 to 226 °C. The same measure, in the same setting: the value for `Nc1ncc(-c2cc(N3CCOCC3)nc(-n3c(C(F)F)nc4ccccc43)n2)cn1` [Example 58, 2-[2-(difluoromethyl)-1H-benzimidazol-1-yl]-6-(4-morpholinyl)-4,5′-bipyrimidine-2′-amine] was 281 to 285 °C; that for `COc1cccc2c1nc(C(F)F)n2-c1nc(N2CCOCC2)c2ncn(-c3cccnc3)c2n1` [Example 59, 2-[2-(difluoromethyl)-4-methoxy-1H-benzimidazol-1-yl]-6-(4-morpholinyl)-9-(3-pyridinyl)-9H-purine] was 229 to 231 °C. Compound `COc1cccc2c1nc(C(F)F)n2-c1nc(N2CCOCC2)nc2c1ncn2-c1cccnc1` [Example 61, 6-[2-(Difluoromethyl)-4-methoxy-1H-benzimidazol-1-yl]-2-(4-morpholinyl)-9-(3-pyridinyl)-9H-purine] showed a melting point of 206 to 209 °C.

Turning to `COc1cccc2c1nc(C(F)F)n2-c1nc(N2CCOCC2)nc2c1ncn2-c1cncnc1` [Example 62, 6-[2-(Difluoromethyl)-4-methoxy-1H-benzimidazol-1-yl]-2-(4-morpholinyl)-9-(5-pyrimidinyl)-9H-purine], the melting point lay within 238 to 240 °C. On to `COc1cc(N)cc2c1nc(C(F)F)n2-c1nc(N2CCOCC2)nc(-n2cccn2)n1` [Example 64, 2-(Difluoromethyl)-4-methoxy-1-[4-(4-morpholinyl)-6-(1H-pyrazol-1-yl)-1,3,5-triazin-2-yl]-1H-benzimidazol-6-ylamine], for which the IC50 on p110δ/p85 and at p110α/p85 was less than 100 nM throughout. With `COc1cc(N)cc2c1nc(C(F)F)n2-c1nc(-c2ccn(C)n2)nc(N2CCOCC2)n1` [Example 65, 2-(Difluoromethyl)-4-methoxy-1-[4-(1-methyl-1H-pyrazol-3-yl)-6-(4-morpholinyl)-1,3,5-triazin-2-yl]-1H-benzimidazol-6-ylamine], the IC50 on p110δ/p85 and at p110α/p85 was less than 100 nM throughout. Turning to `COc1cc(N)cc2c1nc(C(F)F)n2-c1nc(-c2cn[nH]c2)nc(N2CCOCC2)n1` [Example 66, 2-(Difluoromethyl)-4-methoxy-1-[4-(4-morpholinyl)-6-(1H-pyrazol-4-yl)-1,3,5-triazin-2-yl]-1H-benzimidazol-6-ylamine], the IC50 at p110δ/p85 and on p110α/p85 was less than 100 nM in each case.

As to `COc1cccc2c1nc(C(F)F)n2-c1nc(N2CCOCC2)nc(-n2ccnc2)n1` [Example 67, 2-(Difluoromethyl)-1-[4-(1H-imidazol-1-yl)-6-(4-morpholinyl)-1,3,5-triazin-2-yl]-4-methoxy-1H-benzimidazole], the melting point lay in the range of 272 to 275 °C. Take `COc1cc(N)cc2c1nc(C(F)F)n2-c1nc(-c2cccnc2)cc(N2CCOCC2)n1` [Example 68, 2-(Difluoromethyl)-4-methoxy-1-[4-(4-morpholinyl)-6-(3-pyridinyl)-2-pyrimidinyl]-1H-benzimidazol-6-ylamine]: the IC50 at p110δ/p85 and on p110α/p85 was less than 100 nM throughout.
